How the values were obtained:
[1] = system: SW837 (Colorectal Carcinoma); experiment: Bliss excess, mean over the matrix (fraction); higher = more synergy
Summary of the method: (§1)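 Cell lines in DMEM/F12 or RPMI with 10% FBS were plated in 1536-well plates, held 24 hours at 37°C, 5% CO2, then given two-drug dose matrices for 72 hours (DMSO typically 0.2%). Viability was read by CellTiter-Glo 2.0 luminescence and scaled as inhibition from 0 (vehicle wells) to 1 (blank wells). Combination Emax is the second-highest inhibition in the matrix; Bliss excess is observed combination effect minus expected EA + EB − EA·EB, EA and EB being single-agent effects.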

[2] = system: BL-41 (Burkitt's Lymphoma); experiment: as above
Summary of the method: as §1

[3] = system: GR-ST (B-Lymphoblastic Leukemia); experiment: as above
Summary of the method: as §1

[4] = system: BFTC-905 (Bladder Carcinoma); experiment: as above
Summary of the method: as §1

[5] = system: L-540 (Hodgkin's Lymphoma); experiment: as above
Summary of the method: as §1

WIL2-NS (Non-Cancerous) [6] = experiment: as above
Summary of the method: as §1

[7] = system: DND-41 (T-Lymphoblastic Leukemia); experiment: as above
Summary of the method: as §1

NCI-H2818 (Mesothelioma) [8] = experiment: as above
Summary of the method: as §1

ES8 (Ewing's Sarcoma) [9] = experiment: as above
Summary of the method: as §1

[10] = system: MKN28 (Gastric Carcinoma); experiment: as above
Summary of the method: as §1

[11] = system: CAMA-1 (Breast Carcinoma); experiment: as above
Summary of the method: as §1

[12] = system: NCI-H1792 (Lung Adenocarcinoma); experiment: as above
Summary of the method: as §1

ES1 (Ewing's Sarcoma) [13] = experiment: as above
Summary of the method: as §1

WM-115 (Melanoma) [14] = experiment: as above
Summary of the method: as §1

[15] = system: K-562 (Chronic Myelogenous Leukemia); experiment: as above
Summary of the method: as §1

[16] = system: SR (Other Blood Carcinomas); experiment: as above
Summary of the method: as §1

[17] = system: SW1417 (Colorectal Carcinoma); experiment: as above
Summary of the method: as §1

[18] = system: SW837 (Colorectal Carcinoma); experiment: combination Emax (second highest fraction inhibited in the dose matrix, 72 h); higher = more inhibition; extreme values may be limits of the assay
Summary of the method: as §1

[19] = system: BL-41 (Burkitt's Lymphoma); experiment: as above
Summary of the method: as §1

[20] = system: GR-ST (B-Lymphoblastic Leukemia); experiment: as above
Summary of the method: as §1

[21] = system: BFTC-905 (Bladder Carcinoma); experiment: as above
Summary of the method: as §1

[22] = system: L-540 (Hodgkin's Lymphoma); experiment: as above
Summary of the method: as §1

WIL2-NS (Non-Cancerous) [23] = experiment: as above
Summary of the method: as §1

[24] = system: DND-41 (T-Lymphoblastic Leukemia); experiment: as above
Summary of the method: as §1

NCI-H2818 (Mesothelioma) [25] = experiment: as above
Summary of the method: as §1

ES8 (Ewing's Sarcoma) [26] = experiment: as above
Summary of the method: as §1

[27] = system: MKN28 (Gastric Carcinoma); experiment: as above
Summary of the method: as §1

[28] = system: CAMA-1 (Breast Carcinoma); experiment: as above
Summary of the method: as §1

[29] = system: NCI-H1792 (Lung Adenocarcinoma); experiment: as above
Summary of the method: as §1

ES1 (Ewing's Sarcoma) [30] = experiment: as above
Summary of the method: as §1

WM-115 (Melanoma) [31] = experiment: as above
Summary of the method: as §1

[32] = system: K-562 (Chronic Myelogenous Leukemia); experiment: as above
Summary of the method: as §1

[33] = system: SR (Other Blood Carcinomas); experiment: as above
Summary of the method: as §1

[34] = system: SW1417 (Colorectal Carcinoma); experiment: as above
Summary of the method: as §1
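Wherever Bliss excess, mean over the matrix is given: after 72 h of two-drug dosing.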

| Structure (SMILES) | Bliss excess [1] | Bliss excess [2] | Bliss excess [3] | Bliss excess [4] | Bliss excess [5] | Bliss excess (WIL2-NS (Non-Cancerous) [6]) | Bliss excess [7] | Bliss excess (NCI-H2818 (Mesothelioma) [8]) | Bliss excess (ES8 (Ewing's Sarcoma) [9]) | Bliss excess [10] | Bliss excess [11] | Bliss excess [12] | Bliss excess (ES1 (Ewing's Sarcoma) [13]) | Bliss excess (WM-115 (Melanoma) [14]) | Bliss excess [15] | Bliss excess [16] | Bliss excess [17] | combination Emax [18] | combination Emax [19] | combination Emax [20] | combination Emax [21] | combination Emax [22] | combination Emax (WIL2-NS (Non-Cancerous) [23]) | combination Emax [24] | combination Emax (NCI-H2818 (Mesothelioma) [25]) | combination Emax (ES8 (Ewing's Sarcoma) [26]) | combination Emax [27] | combination Emax [28] | combination Emax [29] | combination Emax (ES1 (Ewing's Sarcoma) [30]) | combination Emax (WM-115 (Melanoma) [31]) | combination Emax [32] | combination Emax [33] | combination Emax [34] |
| --- | --- | --- | --- | --- | --- | --- | --- | --- | --- | --- | --- | --- | --- | --- | --- | --- | --- | --- | --- | --- | --- | --- | --- | --- | --- | --- | --- | --- | --- | --- | --- | --- | --- | --- |
| C[C@@H](Nc1cc(F)cc(F)c1)c1cc(C(=O)N(C)C)cc2c(=O)cc(N3CCOCC3)oc12 [AZD8186] + C1CN(CCC1(C(=O)N[C@@H](CCO)C2=CC=C(C=C2)Cl)N)C3=NC=NC4=C3C=CN4 [AZD5363] (first compound max 10 µM, 7x7, partner max 10 µM) | -0.0386 | -0.0264 | -0.03 | -0.0098 | -0.024 | 0.0339 | 0.0141 | -0.017 | 0.0216 | -0.0504 | 0.0234 | -0.0066 | 0.0388 | -0.0842 | 0.0402 | -0.0412 | -0.0038 | 0.237 | 0.276 | 0.556 | 0.423 | 0.173 | 0.614 | 0.193 | 0.286 | 0.625 | 0.107 | 0.712 | 0.344 | 0.55 | 0.645 | 0.253 | 0.297 | 0.372 |
| Cc1c2c(nn1C)CSCc1cc(n(C)n1)CSc1cc(c3ccccc3c1)OCCCc1c(C(=O)O)n(C)c3c-2c(Cl)ccc13 [AZD5991] + CS(=O)(=O)CCNCc1ccc(-c2ccc3ncnc(Nc4ccc(OCc5cccc(F)c5)c(Cl)c4)c3c2)o1 [Lapatinib] (first compound max 1 µM, 7x7, partner max 10 µM) | -0.0176 | -0.0004 | 0.0082 | 0.023 | 0.04 | -0.118 | -0.016 | -0.0282 | 0.109 | -0.0112 | -0.0054 | 0.0446 | -0.0151 | -0.0164 | 0.0139 | 0.0023 | -0.0142 | 0.303 | 1 | 0.955 | 0.407 | 0.996 | 0.27 | 0.792 | 0.277 | 0.763 | 0.41 | 0.791 | 0.453 | 0.9 | 0.32 | 0.52 | 0.927 | 0.192 |
| Cc1c2c(nn1C)CSCc1cc(n(C)n1)CSc1cc(c3ccccc3c1)OCCCc1c(C(=O)O)n(C)c3c-2c(Cl)ccc13 [AZD5991] + CC(=O)O[C@H]1C(=O)[C@@]2(C)[C@H]([C@H](OC(=O)c3ccccc3)[C@]3(O)C[C@H](OC(=O)[C@H](O)[C@@H](NC(=O)c4ccccc4)c4ccccc4)C(C)=C1C3(C)C)[C@]1(OC(C)=O)CO[C@@H]1C[C@@H]2O [Paclitaxel] (first compound max 1 µM, 7x7, partner max 3 µM) | -0.0327 | -0.0098 | -0.0628 | 0.0108 | 0.0087 | -0.137 | 0.0348 | -0.0054 | 0.0091 | -0.011 | 0.117 | -0.0037 | -0.0419 | -0.0392 | -0.0245 | 0.0191 | 0.0164 | 0.62 | 1 | 0.805 | 0.975 | 1 | 0.824 | 0.251 | 0.599 | 1 | 0.49 | 0.957 | 0.959 | 1 | 0.631 | 0.877 | 1 | 0.529 |
| C[C@@H](Nc1cc(F)cc(F)c1)c1cc(C(=O)N(C)C)cc2c(=O)cc(N3CCOCC3)oc12 [AZD8186] + CC(=O)c1c(C)c2cnc(Nc3ccc(N4CCNCC4)cn3)nc2n(C2CCCC2)c1=O [Palbociclib] (first compound max 10 µM, 7x7, partner max 10 µM) | -0.0454 | -0.0114 | 0.0215 | 0.0553 | 0.0275 | -0.0251 | 0.0875 | 0.044 | 0.0321 | -0.0287 | 0.0447 | 0.0608 | 0.074 | 0.0109 | 0.0479 | 0.0382 | 0.0187 | 0.213 | 0.245 | 0.725 | 0.55 | 0.267 | 0.771 | 0.504 | 0.389 | 0.676 | 0.227 | 0.738 | 0.577 | 0.722 | 0.58 | 0.196 | 0.839 | 0.395 |
| Cc1c2c(nn1C)CSCc1cc(n(C)n1)CSc1cc(c3ccccc3c1)OCCCc1c(C(=O)O)n(C)c3c-2c(Cl)ccc13 [AZD5991] + Nc1ccn([C@@H]2O[C@H](CO)[C@@H](O)C2(F)F)c(=O)n1 [Gemcitabine] (first compound max 1 µM, 7x7, partner max 0.3 µM) | -0.0606 | -0.0263 | -0.0516 | -0.0194 | 0.0162 | -0.0263 | 0.021 | -0.0771 | -0.0121 | -0.0367 | 0.133 | -0.0308 | 0.0102 | -0.0572 | 0.0045 | 0.0073 | 0.0394 | 0.273 | 1 | 0.791 | 0.909 | 1 | 0.942 | 0.848 | 0.358 | 1 | 0.161 | 0.942 | 0.774 | 1 | 0.431 | 0.222 | 0.991 | 0.332 |
| CC1(C)CCC(CN2CCN(c3ccc(C(=O)NS(=O)(=O)c4ccc(NCC5CCOCC5)c([N+](=O)[O-])c4)c(Oc4cnc5[nH]ccc5c4)c3)CC2)=C(c2ccc(Cl)cc2)C1 [Venetoclax] + CS(=O)(=O)CCNCc1ccc(-c2ccc3ncnc(Nc4ccc(OCc5cccc(F)c5)c(Cl)c4)c3c2)o1 [Lapatinib] (first compound max 1 µM, 7x7, partner max 10 µM) | -0.0498 | 0.0434 | -0.0246 | -0.0591 | -0.005 | 0.0039 | -0.0268 | -0.0651 | -0.0229 | -0.0303 | -0.0271 | -0.0311 | -0.0215 | -0.0897 | -0.0039 | 0.0557 | -0.0168 | 0.185 | 0.855 | 0.934 | 0.254 | 0.532 | 0.348 | 0.81 | 0.174 | 0.506 | 0.397 | 0.162 | 0.345 | 0.381 | 0.237 | 0.451 | 0.36 | 0.136 |
| CN(CCO)CC[C@H](CSc1ccccc1)Nc1ccc(S(=O)(=O)NC(=O)c2ccc(N3CCC([C@@H](O)c4ccccc4-c4ccc(Cl)cc4)CC3)cc2)cc1S(=O)(=O)C(F)(F)F [AZD4320] + CC(=O)O[C@H]1C(=O)[C@@]2(C)[C@H]([C@H](OC(=O)c3ccccc3)[C@]3(O)C[C@H](OC(=O)[C@H](O)[C@@H](NC(=O)c4ccccc4)c4ccccc4)C(C)=C1C3(C)C)[C@]1(OC(C)=O)CO[C@@H]1C[C@@H]2O [Paclitaxel] (first compound max 1 µM, 7x7, partner max 3 µM) | 0.0777 | -0.0222 | -0.0651 | 0.0384 | 0.0162 | -0.0331 | 0.187 | 0.0844 | 0.0317 | 0.0942 | 0.119 | 0.0049 | -0.0272 | 0.0811 | -0.0181 | 0.0061 | 0.0037 | 0.878 | 1 | 0.839 | 0.989 | 0.974 | 0.942 | 1 | 0.745 | 1 | 0.738 | 0.843 | 0.986 | 0.984 | 0.851 | 0.981 | 1 | 0.864 |
| N#Cc1cnc(Nc2cc(NC[C@H]3CNCCO3)c(C(F)(F)F)cn2)cn1 [SRA737] + CCc1c2c(nc3ccc(O)cc13)-c1cc3c(c(=O)n1C2)COC(=O)[C@]3(O)CC [SN-38] (first compound max 10 µM, 7x7, partner max 0.3 µM) | 0.0267 | -0.0272 | -0.102 | -0.028 | -0.0403 | -0.0262 | -0.0573 | -0.0605 | 0.0054 | 0.04 | 0.0081 | – | -0.0145 | -0.0968 | 0.138 | -0.0069 | 0.019 | 0.805 | 1 | 0.836 | 0.912 | 0.938 | 0.982 | 0.974 | 0.337 | 1 | 0.552 | 0.393 | 0.889 | 1 | 0.421 | 0.977 | 1 | 0.803 |
